Measured values reported in patent US20240190876A1, “Tricyclic Urea Compounds As JAK2 V617F Inhibitors” (Incyte Corporation, priority 2022, published 2024).

What was measured:
FLT3 [1] = target: T1, FLT3 (Homo sapiens, UniProt P36888); test: FLT3 Enzymatic Assay; type: biochemical; settings: HTRF kinase assay, 1 mM ATP
T1 sequence (P36888 27-993): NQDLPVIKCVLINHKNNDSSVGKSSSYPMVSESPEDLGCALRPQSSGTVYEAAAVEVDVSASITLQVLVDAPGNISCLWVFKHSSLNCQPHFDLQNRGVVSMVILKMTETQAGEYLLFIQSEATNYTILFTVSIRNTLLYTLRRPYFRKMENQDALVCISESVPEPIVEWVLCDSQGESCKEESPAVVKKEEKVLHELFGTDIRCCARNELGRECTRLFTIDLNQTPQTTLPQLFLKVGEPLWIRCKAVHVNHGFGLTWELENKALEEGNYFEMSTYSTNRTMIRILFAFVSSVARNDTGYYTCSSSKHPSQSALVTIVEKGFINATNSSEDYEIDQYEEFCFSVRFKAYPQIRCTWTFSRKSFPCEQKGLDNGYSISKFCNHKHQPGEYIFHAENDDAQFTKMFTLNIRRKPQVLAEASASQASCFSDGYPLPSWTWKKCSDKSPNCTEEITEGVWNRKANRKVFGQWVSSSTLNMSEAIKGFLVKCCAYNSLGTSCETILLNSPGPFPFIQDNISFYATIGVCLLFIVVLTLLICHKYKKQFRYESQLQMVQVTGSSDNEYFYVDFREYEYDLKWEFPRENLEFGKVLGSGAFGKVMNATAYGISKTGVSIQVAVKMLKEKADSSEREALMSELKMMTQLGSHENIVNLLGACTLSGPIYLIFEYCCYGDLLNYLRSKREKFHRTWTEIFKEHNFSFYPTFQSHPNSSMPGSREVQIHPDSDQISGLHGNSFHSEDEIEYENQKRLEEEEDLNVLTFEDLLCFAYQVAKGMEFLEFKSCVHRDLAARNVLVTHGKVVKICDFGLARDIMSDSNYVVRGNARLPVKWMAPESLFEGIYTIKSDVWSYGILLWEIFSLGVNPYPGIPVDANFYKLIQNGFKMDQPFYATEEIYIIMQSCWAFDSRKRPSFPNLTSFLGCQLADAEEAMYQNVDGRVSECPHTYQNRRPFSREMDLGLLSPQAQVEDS
Method: (§1) The kinase assays were carried out at room temperature in assay buffer (HEPES 50 mM, pH 7.0, NaN3 0.02%, BSA 0.01%, Orthovanadate 0.1 mM, DTT 1 mM, MgCl2 10 mM) in a final volume of 10 μL. Testing compounds were prepared by serial dilution in DMSO and transferred to the plate wells by ECHO liquid handler (Labcyte) with 0.5% DMSO in the final assay. […]. Reactions were initiated by the addition of 5 μL ATP in assay buffer. The final 10 μL kinase reaction consists of 0.011 nM FLT3, 1 mM ATP, 500 nM TK Substrate-biotin and SEB reagent 62.5 nM in assay buffer. […] The plates were then sealed and centrifuged at 1800 rpm for 2 minutes. After 60 minutes incubation at room temperature, the product activity was determined by measuring the fluorescence at 620 nm and 665 nm on Pherastar microplate reader (BMG Labtech). A ratio is calculated (665/620 nm) for each well. Wells with DMSO only were served as the positive controls and wells containing no ATP were used as negative controls. IC50 determination was performed by fitting the curve of percent control activity versus the log of the compound concentration using the GraphPad Prism 7.0 software.

FLT3 [2] = test: FLT3 Enzymatic Assay; type: biochemical; settings: ratio FLT3 IC50 / JH2 V617F binding IC50
Method: as §1

[3] = tested on: Phospho-STAT5 (Tyr694) in SET-2 cells; test: STAT5 (Tyr694) Phosphorylation Cell Based Assay; settings: Homo sapiens, pSTAT5 (Tyr694) HTRF, 2 hours, RPMI with 10% FBS, read-out: SET2 IC50
Method: SET-2 cells was purchased from DSMZ (Germany). RPMI1640 medium, Fetal Bovine Serum and 384-white sold flat-bottom small volume plate were purchased from Thermo Fisher Scientific (Waltham, MA). Phospho-STAT5 (Tyr694) HTRF kit was purchased from Perkin Elmer (Waltham, MA).
SET-2 cells were cultured in RPMI media with 20% FBS at 37° C. in humidified incubator supplied with 5% CO2. On the day of assay, the cells were centrifuged to remove the culture media and resuspended with prewarmed RPMI with 10% FBS.
Testing compounds were prepared by serial dilution in DMSO and 50 nL/well test compounds were transferred to the 384 white low volume cell culture plate (Greiner Bio-one) by ECHO liquid handler (Labcyte). The cells were then dispensed with Multidrop (Thermo Fisher, Waltham, MA) at 10 μL/well (7×10^6 cells/mL) with 0.5% DMSO in the final assay. After the treated cells were incubated for 2 hours at 37° C./5% CO2 incubator, 4 μL/well supplemented lysis buffer (100X blocking buffer diluted 25 fold in 4X lysis buffer, Perkin Elmer) were added and incubated at room temperature for 90 min on orbital shaker at 600 rpm. Phospho-STAT5 Cryptate antibody and Phospho-STAT5 d2 antibody (1:1 vol/vol) were premixed and diluted 20 fold with in the detection buffer (Perkin Elmer). 4 μL of the premixed antibody solution were added to each well followed with 24 hours incubation at room temperature on orbital shaker at 600 rpm. The product activity was determined by measuring the fluorescence at 620 nm and 665 nm on Pherastar microplate reader (BMG Labtech). A ratio is calculated (665/620) for each well. Wells with DMSO only served as the positive controls and wells containing high concentration of control compound were used as negative controls. IC50 determination was performed by fitting the curve of percent control activity versus the log of the compound concentration using the GraphPad Prism 7.0 software.

KIT [4] = test: KIT Enzymatic Assay; type: biochemical; settings: ratio KIT IC50 / JH2 V617F binding IC50
Method: as §1, with “0.12” for “0.011”, “KIT,” for “FLT3,”

KIT [5] = target: KIT (Homo sapiens, UniProt P10721); test: KIT Enzymatic Assay; type: biochemical; settings: HTRF kinase assay, 1 mM ATP
Method: as §1, with “0.12” for “0.011”, “KIT,” for “FLT3,”

Sequence of KIT (Homo sapiens, UniProt P10721) (P10721 26-976, species assumed): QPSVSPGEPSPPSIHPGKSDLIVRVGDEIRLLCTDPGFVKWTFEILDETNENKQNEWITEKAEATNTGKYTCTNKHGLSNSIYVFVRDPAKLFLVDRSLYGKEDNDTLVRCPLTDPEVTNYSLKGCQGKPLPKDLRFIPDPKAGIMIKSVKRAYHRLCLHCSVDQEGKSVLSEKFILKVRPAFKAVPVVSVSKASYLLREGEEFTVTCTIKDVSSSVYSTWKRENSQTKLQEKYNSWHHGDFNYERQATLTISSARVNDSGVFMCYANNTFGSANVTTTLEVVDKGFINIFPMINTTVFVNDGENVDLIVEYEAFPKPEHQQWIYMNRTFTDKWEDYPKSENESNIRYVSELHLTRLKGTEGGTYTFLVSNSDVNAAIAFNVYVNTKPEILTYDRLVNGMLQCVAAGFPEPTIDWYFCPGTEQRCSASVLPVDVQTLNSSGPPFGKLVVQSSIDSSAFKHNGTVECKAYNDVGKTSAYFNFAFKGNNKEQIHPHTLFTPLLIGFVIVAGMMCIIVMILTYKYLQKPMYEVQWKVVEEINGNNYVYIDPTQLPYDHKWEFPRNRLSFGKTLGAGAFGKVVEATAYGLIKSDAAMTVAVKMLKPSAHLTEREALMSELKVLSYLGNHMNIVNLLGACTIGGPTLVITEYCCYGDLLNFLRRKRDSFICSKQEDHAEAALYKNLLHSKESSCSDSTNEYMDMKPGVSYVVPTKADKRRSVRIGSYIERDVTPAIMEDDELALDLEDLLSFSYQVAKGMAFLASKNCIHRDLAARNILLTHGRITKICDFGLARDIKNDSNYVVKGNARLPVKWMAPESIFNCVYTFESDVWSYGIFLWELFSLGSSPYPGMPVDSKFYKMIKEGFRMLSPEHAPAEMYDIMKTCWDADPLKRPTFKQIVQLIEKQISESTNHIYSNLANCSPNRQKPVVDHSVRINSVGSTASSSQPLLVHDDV

Row | Compound | IC50 (FLT3 [1]) | Selectivity FLT3/JH2 V617F (FLT3 [2]) | IC50 [3] | Selectivity KIT/JH2 V617F (KIT [4]) | IC50 (KIT [5])
1 | COc1ccc(-c2c(-c3cn(C)nc3OC)[nH]c3ncc4c(c23)n([C@H]2CC[C@@](C)(NC(=O)C3CC3)CC2)c(=O)n4C)cc1 [Example 1, N-((1s,4s)-4-(7-(3-Methoxy-1-methyl-1H-pyrazol-4-yl)-8-(4-methoxyphenyl)-3-methyl-2-oxo-3,6-dihydroimidazo[4,5-d]pyrrolo[2,3-b]pyridin-1(2H)-yl)-1-methylcyclohexyl)cyclopropanecarboxamide] | > 2500 nM | ***** (***** refers to selectivity of >5000-fold to ≤12500-fold) | ≤ 300 nM | ****** (****** refers to selectivity of >12500-fold) | > 2500 nM
2 | [2H]C([2H])([2H])n1ncc2cc(-c3c(-c4cn(C)nc4OC)[nH]c4ncc5c(c34)n([C@H]3CC[C@@](C)(NC(=O)C4CC4)CC3)c(=O)n5C)ccc21 [Example 2, N-((1s,4s)-4-(7-(3-Methoxy-1-methyl-1H-pyrazol-4-yl)-3-methyl-8-(1-(methyl-d3)-1H-indazol-5-yl)-2-oxo-3,6-dihydroimidazo[4,5-d]pyrrolo[2,3-b]pyridin-1(2H)-yl)-1-methylcyclohexyl)cyclopropanecarboxamide] | 1250 to 2500 nM | ****** (****** refers to selectivity of >12500-fold) | ≤ 300 nM | ****** (****** refers to selectivity of >12500-fold) | > 2500 nM
3 | [2H]C([2H])([2H])n1cc(-c2[nH]c3ncc4c(c3c2-c2ccc(OC)cc2)n([C@H]2CC[C@@](C)(NC(=O)C3CC3)CC2)c(=O)n4C)c(F)n1 [Example 3, N-((1s,4s)-4-(7-(3-fluoro-1-(methyl-d3)-1H-pyrazol-4-yl)-8-(4-methoxyphenyl)-3-methyl-2-oxo-3,6-dihydroimidazo[4,5-d]pyrrolo[2,3-b]pyridin-1(2H)-yl)-1-methylcyclohexyl)cyclopropanecarboxamide] | 250 to 1250 nM | ** (** refers to selectivity of >500-fold to ≤1500-fold) | ≤ 300 nM | **** (**** refers to selectivity of >1750-fold to ≤5000-fold) | 250 to 1250 nM
4 | [2H]C([2H])([2H])n1cc(-c2[nH]c3ncc4c(c3c2-c2ccc3c(cnn3C([2H])([2H])[2H])c2)n([C@H]2CC[C@@](C)(NC(=O)C3CC3)CC2)c(=O)n4C)c(F)n1 [Example 4, N-((1s,4s)-4-(7-(3-fluoro-1-(methyl-d3)-1H-pyrazol-4-yl)-3-methyl-8-(1-(methyl-d3)-1H-indazol-5-yl)-2-oxo-3,6-dihydroimidazo[4,5-d]pyrrolo[2,3-b]pyridin-1(2H)-yl)-1-methylcyclohexyl)cyclopropanecarboxamide] | 250 to 1250 nM | *** (*** refers to selectivity of >1500-fold to ≤1750-fold) | ≤ 300 nM | **** (**** refers to selectivity of >1750-fold to ≤5000-fold) | 250 to 1250 nM
5 | [2H]C([2H])([2H])n1ncc2cc(-c3c(-c4cn(CC)nc4F)[nH]c4ncc5c(c34)n([C@H]3CC[C@@](C)(NC(=O)C4CC4)CC3)c(=O)n5C)ccc21 [Example 5, N-((1s,4s)-4-(7-(1-Ethyl-3-fluoro-1H-pyrazol-4-yl)-3-methyl-8-(1-(methyl-d3)-1H-indazol-5-yl)-2-oxo-3,6-dihydroimidazo[4,5-d]pyrrolo[2,3-b]pyridin-1(2H)-yl)-1-methylcyclohexyl)cyclopropanecarboxamide] | 25 to 250 nM | ** (** refers to selectivity of >500-fold to ≤1500-fold) | ≤ 300 nM | **** (**** refers to selectivity of >1750-fold to ≤5000-fold) | 250 to 1250 nM
6 | [2H]C([2H])([2H])n1cc(-c2[nH]c3ncc4c(c3c2-c2ccc(OC)cc2)n([C@H]2CC[C@@](C)(NC(=O)[C@H]3C[C@H]3F)CC2)c(=O)n4C([2H])([2H])[2H])c(F)n1 [Example 6, (1R,2R)-2-Fluoro-N-((1s,4S)-4-(7-(3-fluoro-1-(methyl-d3)-1H-pyrazol-4-yl)-8-(4-methoxyphenyl)-3-(methyl-d3)-2-oxo-3,6-dihydroimidazo[4,5-d]pyrrolo[2,3-b]pyridin-1(2H)-yl)-1-methylcyclohexyl)cyclopropane-1-carboxamide] | 25 to 250 nM | ** (** refers to selectivity of >500-fold to ≤1500-fold) | ≤ 300 nM | ***** (***** refers to selectivity of >5000-fold to ≤12500-fold) | 250 to 1250 nM
